Test results as given in US11377469B2, “CD73 inhibitors” (ORIC Pharmaceuticals, Inc., priority 2017, dated 2022).

Molecular target: CD73 (Homo sapiens (Human), UniProt P21589)
Assay: Biochemical Assay (CD73 inhibition, AMP hydrolysis, Malachite Green readout)
Details: CD73 0.3208 nM, AMP 15 μM, Tris-HCl pH 7.4, Malachite Green absorbance
Experimental: Example A1: Biochemical Assay
Assay Reaction Conditions
• Assay Volume: 70 μl • Reaction Volume: 50 μl • CD73: 0.3208 nM • AMP: 15 μM • Assay Buffer: 2 5 mM Tris-HCL, pH 7.4, 0.01% Brij-35, 0.01% BSA, 5 mM MgCl2 Assay Procedure:
Made dose titration of testing compounds in assay buffer, 10 points ½ log titrations in duplicates starting at 100 μM.
Added 25 μl of CD73 to each well for a final concentration of 320 pM.
Incubated at RT for 15 min.
Added 25 μl of AMP to each well for a final concentration of 15 μM.
Incubated at RT for 10 min.
Added 10 μl of Malachite Green Reagent A, incubate at RT for 10 min.
Added 10 μl of Malachite Green Reagent B, incubate at RT for 45 min. […]
The ability of the compounds disclosed herein to inhibit CD73 activity was quantified and the respective IC50 values were determined. Table 1 provides the biochemical IC50 values of compounds disclosed herein.

Sequence of CD73 (P21589 27-574): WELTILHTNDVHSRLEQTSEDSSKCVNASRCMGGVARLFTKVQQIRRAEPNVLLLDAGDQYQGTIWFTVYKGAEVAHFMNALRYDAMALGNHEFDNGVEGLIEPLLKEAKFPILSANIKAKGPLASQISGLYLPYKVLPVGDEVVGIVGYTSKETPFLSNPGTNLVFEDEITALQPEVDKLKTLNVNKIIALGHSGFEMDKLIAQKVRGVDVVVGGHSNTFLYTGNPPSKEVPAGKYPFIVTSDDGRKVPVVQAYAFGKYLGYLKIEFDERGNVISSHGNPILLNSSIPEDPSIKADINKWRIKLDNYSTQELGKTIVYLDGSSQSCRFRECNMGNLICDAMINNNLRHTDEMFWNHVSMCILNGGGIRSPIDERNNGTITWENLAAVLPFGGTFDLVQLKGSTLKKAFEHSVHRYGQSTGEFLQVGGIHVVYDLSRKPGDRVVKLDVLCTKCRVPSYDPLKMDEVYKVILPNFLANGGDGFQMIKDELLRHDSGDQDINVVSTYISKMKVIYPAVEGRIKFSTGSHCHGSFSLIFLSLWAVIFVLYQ

SMILES	IC50 [nM]
CN(c1nc(Cl)nc2c1nnn2[C@@H]1O[C@H](COC(=O)CP(=O)(O)O)[C@@H](O)[C@H]1O)[C@H]1CCc2ccccc21 [Example 11, (2-(((2R,3S,4R,5R)-5-(5-chloro-7-(((S)-2,3-dihydro-1H-inden-1-yl)(methyl)amino)-3H-[1,2,3]triazolo[4,5-d]pyrimidin-3-yl)-3,4-dihydroxytetrahydrofuran-2-yl)methoxy)-2-oxoethyl)phosphonic acid]	> 1000
O=P(O)(O)COC[C@H]1O[C@@H](n2nnc3c(N[C@H]4CCc5ccccc54)nc(Cl)nc32)[C@H](O)[C@@H]1O [Example 12, ((((2R,3S,4R,5R)-5-(5-chloro-7-(((S)-2,3-dihydro-1H-inden-1-yl)amino)-3H-[1,2,3]triazolo[4,5-d]pyrimidin-3-yl)-3,4-dihydroxytetrahydrofuran-2-yl)methoxy)methyl)phosphonic acid]	≤ 500
O=P(O)(O)CSC[C@H]1O[C@@H](n2ncc3c(NCc4ccccc4Cl)nc(Cl)nc32)[C@H](O)[C@@H]1O [Example 13, (((((2S,3S,4R,5R)-5-(6-Chloro-4-((2-chlorobenzyl)amino)-1H-pyrazolo[3,4-d]pyrimidin-1-yl)-3,4-dihydroxytetrahydrofuran-2-yl)methyl)thio)methyl)phosphonic acid]	≤ 500
O=P(O)(O)CS(=O)(=O)C[C@H]1O[C@@H](n2ncc3c(NCc4ccccc4Cl)nc(Cl)nc32)[C@H](O)[C@@H]1O [Example 14, (((((2S,3S,4R,5R)-5-(6-Chloro-4-((2-chlorobenzyl)amino)-1H-pyrazolo[3,4-d]pyrimidin-1-yl)-3,4-dihydroxytetrahydrofuran-2-yl)methyl)sulfonyl)methyl)phosphonic acid]	≤ 500
O=P(O)(O)COC[C@H]1O[C@@H](n2ccc3c(NCC4CC4)nc(Cl)nc32)[C@H](O)[C@@H]1O [Example 15, ((((2R,3S,4R,5R)-5-(2-Chloro-4-((cyclopropylmethyl)amino)-7H-pyrrolo[2,3-d]pyrimidin-7-yl)-3,4-dihydroxytetrahydrofuran-2-yl)methoxy)methyl)phosphonic acid]	≤ 500
O=P(O)(O)COC[C@H]1O[C@@H](n2nnc3c(NCC4CC4)nc(Cl)nc32)[C@H](O)[C@@H]1O [Example 16, ((((2R,3S,4R,5R)-5-(5-Chloro-7-((cyclopropylmethyl)amino)-3H-[1,2,3]triazolo[4,5-d]pyrimidin-3-yl)-3,4-dihydroxytetrahydrofuran-2-yl)methoxy)methyl)phosphonic acid]	≤ 500
O=P(O)(O)COC[C@H]1O[C@@H](n2ncc3c(NCc4ccccc4Cl)nc(CO)nc32)[C@H](O)[C@@H]1O [Example 17, ((((2R,3S,4R,5R)-5-(4-((2-Chlorobenzyl)amino)-6-(hydroxymethyl)-1H-pyrazolo[3,4-d]pyrimidin-1-yl)-3,4-dihydroxytetrahydrofuran-2-yl)methoxy)methyl)phosphonic acid]	≤ 500
N#Cc1nc(NCc2cccc(Cl)c2)c2cnn([C@@H]3O[C@H](COCP(=O)(O)O)[C@@H](O)[C@H]3O)c2n1 [Example 18, ((((2R,3S,4R,5R)-5-(4-((3-Chlorobenzyl)amino)-6-cyano-1H-pyrazolo[3,4-d]pyrimidin-1-yl)-3,4-dihydroxytetrahydrofuran-2-yl)methoxy)methyl)phosphonic acid]	≤ 500
C[C@@]1(O)[C@@H](COCP(=O)(O)O)O[C@@H](n2ncc3c(NCc4ccccc4Cl)nc(Cl)nc32)[C@@H]1O [Example 19, ((((2R,3S,4R,5R)-5-(6-Chloro-4-((2-chlorobenzyl)amino)-1H-pyrazolo[3,4-d]pyrimidin-1-yl)-3,4-dihydroxy-3-methyltetrahydrofuran-2-yl)methoxy)methyl)phosphonic acid]	500 to 1000
CC(C)CN(C[C@H]1O[C@@H](n2ncc3c(NCc4ccccc4Cl)nc(Cl)nc32)[C@H](O)[C@@H]1O)C(=O)CP(=O)(O)O [Example 20, (2-((((2R,3S,4R,5R)-5-(6-Chloro-4-((2-chlorobenzyl)amino)-1H-pyrazolo[3,4-d]pyrimidin-1-yl)-3,4-dihydroxytetrahydrofuran-2-yl)methyl)(isobutyl)amino)-2-oxoethyl)phosphonic acid]	> 1000
O=P(O)(O)COC[C@H]1O[C@@H](n2ncc3c(N[C@H]4CCc5ccccc54)nc(Cl)nc32)[C@H](O)[C@@H]1O [Example 25, ((((2R,3S,4R,5R)-5-(6-chloro-4-(((S)-2,3-dihydro-1H-inden-1-yl)amino)-1H-pyrazolo[3,4-d]pyrimidin-1-yl)-3,4-dihydroxytetrahydrofuran-2-yl)methoxy)methyl)phosphonic acid]	≤ 500
CN(c1nc(Cl)nc2c1nnn2[C@@H]1O[C@H](COCP(=O)(O)O)[C@@H](O)[C@H]1O)[C@H]1CCc2ccccc21 [Example 26, ((((2R,3S,4R,5R)-5-(5-chloro-7-(((S)-2,3-dihydro-1H-inden-1-yl)(methyl)amino)-3H-[1,2,3]triazolo[4,5-d]pyrimidin-3-yl)-3,4-dihydroxytetrahydrofuran-2-yl)methoxy)methyl)phosphonic acid]	500 to 1000
O=P(O)(O)COC[C@H]1O[C@@H](n2ncc3c(NCc4cccc(Cl)c4)nc(Cl)nc32)[C@H](O)[C@@H]1O [Example 27, ((((2R,3S,4R,5R)-5-(6-chloro-4-((3-chlorobenzyl)amino)-1H-pyrazolo[3,4-d]pyrimidin-1-yl)-3,4-dihydroxytetrahydrofuran-2-yl)methoxy)methyl)phosphonic acid]	≤ 500
O=C(CP(=O)(O)O)N(Cc1ccccc1)C[C@H]1O[C@@H](n2ncc3c(NCc4ccccc4Cl)nc(Cl)nc32)[C@H](O)[C@@H]1O [Example 28, (2-(benzyl(((2R,3S,4R,5R)-5-(6-chloro-4-((2-chlorobenzyl)amino)-1H-pyrazolo[3,4-d]pyrimidin-1-yl)-3,4-dihydroxytetrahydrofuran-2-yl)methyl)amino)-2-oxoethyl)phosphonic acid]	> 1000
O=P(O)(O)COC[C@H]1O[C@@H](n2ncc3c(NCc4cccc(F)c4)nc(Cl)nc32)[C@H](O)[C@@H]1O [Example 29, ((((2R,3S,4R,5R)-5-(6-chloro-4-((3-fluorobenzyl)amino)-1H-pyrazolo[3,4-d]pyrimidin-1-yl)-3,4-dihydroxytetrahydrofuran-2-yl)methoxy)methyl)phosphonic acid]	≤ 500
O=P(O)(O)COC[C@H]1O[C@@H](n2nnc3c(NCc4ccccc4Cl)nc(Cl)nc32)[C@H](O)[C@@H]1O [Example 30, ((((2R,3S,4R,5R)-5-(5-chloro-7-((2-chlorobenzyl)pamino)-3H-[1,2,3]triazolo[4,5-d]pyrimidin-3-yl)-3,4-dihydroxytetrahydrofuran-2-yl)methoxy)methyl)phosphonic acid]	≤ 500
CN(c1nc(Cl)nc2c1cnn2[C@@H]1O[C@H](COCP(=O)(O)O)[C@@H](O)[C@H]1O)[C@H]1CCc2ccccc21 [Example 31, ((((2R,3S,4R,5R)-5-(6-chloro-4-(((S)-2,3-dihydro-1H-inden-1-yl)(methyl)amino)-1H-pyrazolo[3,4-d]pyrimidin-1-yl)-3,4-dihydroxytetrahydrofuran-2-yl)methoxy)methyl)phosphonic acid]	≤ 500
O=P(O)(O)COC[C@H]1O[C@@H](n2ncc3c(NCc4cccc(C(F)(F)F)c4)nc(Cl)nc32)[C@H](O)[C@@H]1O [Example 32, ((((2R,3S,4R,5R)-5-(6-chloro-4-((3-(trifluoromethyl)benzyl)amino)-1H-pyrazolo[3,4-d]pyrimidin-1-yl)-3,4-dihydroxytetrahydrofuran-2-yl)methoxy)methyl)phosphonic acid]	≤ 500
C[C@H](Nc1nc(Cl)nc2c1cnn2[C@@H]1O[C@H](COCP(=O)(O)O)[C@@H](O)[C@H]1O)c1ccccc1Cl [Example 33, ((((2R,3S,4R,5R)-5-(6-chloro-4-(((S)-1-(2-chlorophenyl)ethyl)amino)-1H-pyrazolo[3,4-d]pyrimidin-1-yl)-3,4-dihydroxytetrahydrofuran-2-yl)methoxy)methyl)phosphonic acid]	≤ 500
C[C@H](Nc1nc(Cl)nc2c1cnn2[C@@H]1O[C@H](COCP(=O)(O)O)[C@@H](O)[C@H]1O)c1cccc(Cl)c1 [Example 34, ((((2R,3S,4R,5R)-5-(6-chloro-4-(((S)-1-(3-chlorophenyl)ethyl)amino)-1H-pyrazolo[3,4-d]pyrimidin-1-yl)-3,4-dihydroxytetrahydrofuran-2-yl)methoxy)methyl)phosphonic acid]	≤ 500
C[C@@H](c1cccc(Cl)c1)N(C)c1nc(Cl)nc2c1cnn2[C@@H]1O[C@H](COCP(=O)(O)O)[C@@H](O)[C@H]1O [Example 36]	> 1000
CN(Cc1cccc(Cl)c1)c1nc(Cl)nc2c1cnn2[C@@H]1O[C@H](COCP(=O)(O)O)[C@@H](O)[C@H]1O [Example 37, ((((2R,3S,4R,5R)-5-(6-chloro-4-((3-chlorobenzyl)(methyl)amino)-1H-pyrazolo[3,4-d]pyrimidin-1-yl)-3,4-dihydroxytetrahydrofuran-2-yl)methoxy)methyl)phosphonic acid]	≤ 500
O=P(O)(O)COC[C@H]1O[C@@H](n2ncc3c(NCC4CC4)nc(Cl)nc32)[C@H](O)[C@@H]1O [Example 38, ((((2R,3S,4R,5R)-5-(6-chloro-4-((cyclopropylmethyl)amino)-1H-pyrazolo[3,4-d]pyrimidin-1-yl)-3,4-dihydroxytetrahydrofuran-2-yl)methoxy)methyl)phosphonic acid]	≤ 500
